The test system of test [1] is μ-opioid receptor expression. The settings on record: spinal cord and dorsal root ganglia (DRG); cited from earlier work.
For test [2], the system named is Walker 256 tumor-bearing rats. The settings on record: cited from earlier work.
For another test, the system named is keratinocytes. As to conditions: cited from earlier work.
The test system of test [3] is preclinical inflammatory, postoperative, and neuropathic pain. As to conditions: dose- and time-dependent; cited from earlier work.
Test [4] concerns morphine analgesia and antinociceptive tolerance. The settings on record: rats, with morphine; cited from earlier work.
Test [5] deals with formalin model of inflammatory pain. As to conditions: coadministration; cited from earlier work.
The next test concerns the target T1, mouse CB2 receptors (Mus musculus, UniProt P47936).
T1 construct: expressed in transfected cells
The test can be described thus: Forskolin-stimulated cAMP accumulation (cyclase), HEK mCB2. The class given is cell-based. (In general: cAMP levels reflect the balance of adenylyl cyclase and phosphodiesterase activity.)

The subject of test [6] is paclitaxel-induced cold allodynia. The test is described as follows: Paclitaxel-induced cold allodynia (acetone). It counts as in vivo, mouse. The protocol: (§1) In all studies, the experimenter was blinded to the treatment condition, and mice were randomly assigned to experimental conditions. Paclitaxel (4 mg/kg i.p.) was administered four times on alternate days (cumulative dose, 16 mg/kg i.p.) to induce neuropathic pain as described previously by our group (Deng et al., 2015). Control mice received an equal volume of cremophor-vehicle. Development of paclitaxel-induced allodynia was assessed on day 0, 4, 7, 11, and 14.
(§2) Effects of pharmacologic manipulations were assessed at 30 minutes after drug administration during the maintenance phase of paclitaxel-induced neuropathy (i.e., beginning day 18-20 after initial paclitaxel injection).
(§3) In experiments 2 and 3, pharmacologic manipulations were performed once daily for 12 consecutive days in each of the two phases of chronic treatment. Four days separated phase 1 and phase 2 chronic dosing in all studies comprising two phases of chronic dosing. Experiments 2 and 3 were performed concurrently using overlapping cohorts that were tested with a single vehicle (phase 1), vehicle (phase 2) group.
(§4) We then assessed the antiallodynic efficacy of chronic systemic administration of vehicle or morphine (10 mg/kg per day i.p.×12 days) administered during phase 2 in the same animals. Responsiveness to mechanical and cold stimulation was evaluated on treatment days 1, 4, 8, and 12 during phase 1 and on treatment days 16, 19, 23, and 27 during phase 2 (i.e., phase 2 started on day 16).
(§5) In experiment 4, we evaluated the impact of coadministration of morphine (10 mg/kg i.p.×12 days) with a submaximal dose of LY 2828360 (0.1 mg/kg per day i.p.×12 days) in WT and CB2 KO mice.
Response time (seconds) spent attending to (i.e., elevating, licking, biting, or shaking) the paw stimulated with acetone (Sigma-Aldrich) was measured in triplicate for each paw to assess cold allodynia as previously published. An acetone bubble (approximately 5 to 6 p.1) formed at the end of a blunt 1-ml syringe hub was gently applied to the plantar surface of the hind paw. Care was taken not to apply mechanical stimulation to the hind paw with the syringe itself. The total time the animal spent attending to the acetone-stimulated paw (i.e., elevation, shaking, or licking) was recorded over 1 minute after acetone application. Acetone was applied three times to each paw with a 3-minute interval between applications. Values for each animal were calculated as the mean of six determinations of acetone responsiveness derived from each mouse.

Test [7] concerns paclitaxel-induced neuropathic pain. As to conditions: 8 days once daily (i.p.) dosing or chronic infusion over 4 weeks; cited from earlier work.
Test [8] relates to paclitaxel-induced mechanical allodynia. The test is described as follows: Paclitaxel-induced mechanical allodynia (electronic von Frey). The class given is in vivo, mouse. Here is the method: as §1, §2, §3, §4, §5
Paw withdrawal thresholds (grams) to mechanical stimulation were measured in duplicate for each paw using an electronic von Frey anesthesiometer supplied with a 90-g probe (model Alemo 2390-5; IITC, Woodland Hills, Calif.) as described previously. Mice were placed on an elevated metal mesh table and allowed to habituate under individual, inverted plastic cages to the testing platform for at least 20 minutes until exploratory behavior had ceased. Alter the habituation period, a force was applied to the midplantar region of the hind paw with a semiflexible tip connected to the anesthesiometer. Mechanical stimulation was terminated when the animal withdrew its paw, and the value of the applied force was recorded in grams. Mechanical paw withdrawal thresholds were obtained in duplicate for each paw and are reported as the mean of duplicate determinations from each animal, averaged across animals, for each group.

The test system of test [9] is naloxone-precipitated opioid withdrawal. The test is described as follows: Naloxone-precipitated opioid withdrawal in paclitaxel-treated mice. The settings on record: paclitaxel-treated WT mice. It counts as in vivo, mouse. Here is the method:
Alter the last injection of morphine (on day 28 for two-phase treatments, on day 13 for coadministration treatment), we challenged WT or CB2KO mice from experiments 2, 3, and 4 with vehicle, followed 30 minutes later by naloxone (5 mg/kg i.p.) to precipitate opioid receptor-mediated withdrawal. Mice were video-recorded for subsequent scoring of withdrawal-like behaviors for a 30-minute interval after challenge with vehicle or naloxone.
Mice were video-taped, and the number of jumps was scored in 5-minute intervals for a total observation period of 30 minutes after challenge with either saline or naloxone (5 mg/kg i.p.).

For a further test, the target named is human CB2 (Homo sapiens, UniProt P34972). The test can be described thus: Forskolin-stimulated cAMP accumulation (cyclase), HEK hCB2. It counts as cell-based. Further details: expressed in transfected cells.
Where [10] appears, read: WT mice, 5 mg/kg per day i.p.×12 days.
[11] abbreviates: WT mice, AM1710 5 mg/kg per day×12 days phase I, morphine 10 mg/kg per day×12 days phase II.
[12] abbreviates: paclitaxel-treated WT mice, 5 mg/kg per day i.p.×12 days, vs vehicle.

T1 sequence (P47936 whole entry): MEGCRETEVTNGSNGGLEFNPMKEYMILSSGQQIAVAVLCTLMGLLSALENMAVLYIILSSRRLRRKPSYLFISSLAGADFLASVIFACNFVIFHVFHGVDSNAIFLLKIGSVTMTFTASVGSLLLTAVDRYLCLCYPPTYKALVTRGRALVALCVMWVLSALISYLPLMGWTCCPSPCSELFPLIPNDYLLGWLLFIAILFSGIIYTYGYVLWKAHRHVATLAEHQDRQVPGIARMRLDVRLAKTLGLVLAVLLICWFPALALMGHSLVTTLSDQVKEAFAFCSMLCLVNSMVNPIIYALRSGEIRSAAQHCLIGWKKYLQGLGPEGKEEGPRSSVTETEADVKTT
Sequence of human CB2 (P34972 whole entry): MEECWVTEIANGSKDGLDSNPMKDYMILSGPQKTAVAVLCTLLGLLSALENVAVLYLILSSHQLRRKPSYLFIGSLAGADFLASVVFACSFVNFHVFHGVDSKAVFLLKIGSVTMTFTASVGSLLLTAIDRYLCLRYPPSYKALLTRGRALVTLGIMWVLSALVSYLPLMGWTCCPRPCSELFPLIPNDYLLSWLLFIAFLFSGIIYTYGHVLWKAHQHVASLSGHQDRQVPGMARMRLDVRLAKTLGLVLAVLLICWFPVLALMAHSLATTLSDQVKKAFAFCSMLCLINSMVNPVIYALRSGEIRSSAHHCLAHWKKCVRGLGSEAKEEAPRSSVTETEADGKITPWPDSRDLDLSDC

`CN1CCCCC1Cn1cc(C(=O)c2cc([N+](=O)[O-])ccc2I)c2ccccc21` (centres unmarked) [AM1241]: in test [1], the μ-opioid receptor expression result is reported as “upregulated μ-opioid receptor expression”. In addition, the morphine tolerance entry in [2] (low dose coadministered with morphine) is recorded as “reduced the morphine tolerance”. In test [2] (tumor-bearing rats), the “opioid-mediated antinociception, hotplate and mechanical sensitivity” value is “modest enhancement of opioid-mediated antinociception”. Moreover, in the test on keratinocytes, the “release of β-endorphin” value is “stimulated the release of the endogenous opioid β-endorphin”.

On to `CCCn1c(C)c(C(=O)c2cccc3ccccc23)c2ccccc21` [JWH015], for which the “pain inhibition on coadministration with morphine” value in test [3] is “synergistically inhibited preclinical inflammatory, postoperative, and neuropathic pain”. Also, the “morphine analgesia and morphine antinociceptive tolerance” value in test [4] was “increased morphine analgesia and morphine antinociceptive tolerance”.

In the case of `CCCC(C)(C)c1ccc2c(c1)OC(C)(C)[C@@H]1CC=C(C)C[C@@H]21` [JWH133], the opioid-sparing effects entry in test [5] is given as “exhibited opioid-sparing effects”.

On to `CCCCCCC(C)(C)c1cc(O)c2c(c1)oc(=O)c1ccc(OC)cc12` [AM1710, 3-(1,1-dimethyl-heptyl)-1-hydroxy-9-methoxy-benzo(c) chromen-6-one], for which the “time by which inhibition of forskolin-stimulated cAMP dissipated” value at mouse CB2 receptors (HEK mCB2, 1 μM) was no more than 15 min. Also, at mouse CB2 receptors (HEK mCB2, 1 μM final concentration, 5 minutes), the “forskolin-induced cAMP levels” value is recorded as “attenuated forskolin-induced cAMP levels”. Further, the “cAMP levels in the absence of forskolin” value at mouse CB2 receptors (HEK mCB2, compound alone) is reported as “alone did not change cAMP levels”. Further, the “cAMP levels in the absence of forskolin at 10 minutes” value at mouse CB2 receptors (HEK mCB2, compound alone, 10 minutes) is “decreased cAMP levels below the basal/no forskolin level”. On mouse CB2 receptors (mCB2, 1 μM, PTX 300 ng/ml overnight), the “forskolin-stimulated cAMP after PTX treatment” value is listed as “abolished the decrease in forskolin-stimulated cAMP”. Besides, the “tolerance to antiallodynic effects over repeated administration, cold” value in [6] (setting [10]) is given as “tolerance did not develop”. Further, in test [6] (setting [11]), the “development of tolerance to phase II morphine, cold” value is recorded as “delayed the development of tolerance to morphine”. The “cold response time, chronic phase I treatment” value in [6] (setting [12]) is “reduced the heightened cold response time”. Also, the “paclitaxel-induced neuropathic pain, tolerance and physical dependence” value in [7] is listed as “suppresses paclitaxel-induced neuropathic pain without producing tolerance or physical dependence”. Further, the “tolerance to antiallodynic effects over repeated administration, mechanical” value in test [8] (setting [10]) was “tolerance did not develop”. Also, the “development of tolerance to phase II morphine, mechanical” value in [8] (setting [11]) is recorded as “delayed the development of tolerance to morphine”. Besides, the “mechanical paw withdrawal thresholds, chronic phase I treatment” value in test [8] (setting [12]) is given as “increased mechanical paw withdrawal thresholds”. In addition, the “naloxone-precipitated jumps, AM1710 (I)-morphine (II) vs vehicle (I)-vehicle (II)” value in test [9] is “did not differ”. Further, the “number of naloxone-precipitated jumps, AM1710 (I)-morphine (II) vs vehicle (I)-morphine (II)” value in [9] (AM1710 5 mg/kg i.p.×12 days, morphine 10 mg/kg i.p.×12 days) was “lower”. On human CB2 (HEK hCB2), the “cAMP levels, compound alone (no forskolin)” value is reported as “alone did not change the cAMP levels” and the “duration of decrease in cAMP” value was “up to 30 minutes”. The “inhibition of forskolin-induced cAMP levels, time course” value against human CB2 (HEK hCB2, 1 μM final concentration) is “induced a delayed and persistent inhibition of forskolin-stimulated cAMP levels, starting at 10 minutes”. At human CB2 (HEK hCB2, 1 μM final concentration, PTX), the “inhibition of forskolin-stimulated cAMP after PTX pretreatment” value was “blocked the inhibition of forskolin-stimulated cAMP”. Also, the “cAMP levels vs forskolin alone in PTX-treated cells” value at human CB2 (HEK hCB2, with forskolin, 5 minutes, PTX) is reported as “increased cAMP levels compared with forskolin alone”.

The values are drawn from patent US20190314379A1, “METHODS OF USING CANNABINOID CB2 RECEPTOR AGONIST COMPOSITIONS TO SUPPRESS AND PREVENT OPIOID TOLERANCE AND WITHDRAWAL IN A SUBJECT” (Indiana University Research and Technology Corporation, priority 2018, published 2019).
